Experiments:
[1] = tested on: Staphylococcus aureus-SMITH (GC 4543); assay: Acute lethal infection in mice (ED50); type: in vivo; conditions: female CD-1 mice, intraperitoneal challenge, intravenous dose 30 min. after infection, 7 day survival ratios
Outline: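 Groups of five female CD-1 mice per dose got intravenous antibiotic in saline or 5% dextrose half an hour after intraperitoneal infection sufficient to kill controls within 24-48 hr. Seven-day survival data from three experiments were combined to derive ED50.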

Enterococcus sp. = assay: In vitro antibacterial evaluation: minimum inhibitory concentration (MIC), broth dilution method; type: cell-based; conditions: 18 hours at 35° C.
Outline: (§1)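 First, organisms are seeded at 5×10^5 CFU/mL into Muller-Hinton II […]. Next, antibiotic is applied across 64-0.06 μg/mL by broth dilution (NCCLS M7-A2). Finally, the lowest inhibitory concentration is recorded as MIC.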

Escherichia coli = assay: as above; type: cell-based; conditions: 18 hours at 35° C.
Outline: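 Values are minimum inhibitory concentrations, meaning the smallest antibiotic concentration that stops growth of the organism. They come from broth dilution in Muller-Hinton II […] per NCCLS guidance (M7-A2), using 5×10^5 CFU/mL and concentrations from 64 to 0.06 μg/mL.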

Streptococcus sp. = assay: as above; type: cell-based; conditions: 18 hours at 35° C.
Outline: as §1

Staphylococcus sp. = assay: as above; type: cell-based; conditions: 18 hours at 35° C.
Outline: as §1

[2] = Enterococcus faecalis (ATCC 29212)
[3] = Enterococcus faecalis (GC 2242)
[4] = Enterococcus faecalis (GC 2691)
[5] = Enterococcus faecalis (GC 3059)
[6] = Enterococcus faecalis (GC 4552)
[7] = Enterococcus faecalis (GC 4553)
[8] = Enterococcus faecalis (GC 4554)
[9] = Enterococcus faecalis (GC 6189)
[10] = broth dilution, inoculum 5×10^5 CFU/mL
[11] = Streptococcus agalactiae (GC 4564)
[12] = Streptococcus pneumoniae (ATCC 6301)
[13] = Streptococcus pneumoniae (GC 1894)
[14] = Streptococcus pneumoniae (GC 4565)
[15] = Streptococcus pyogenes (GC 4563)

CC(c1ccccc1)C1NC(=O)CNC(=O)C(CO)NC(=O)C(C(O)C2CNC(=N)N2C2OC(CO)C(O)C(O)C2O)NC(=O)C(C(O)C2CNC(=N)N2)NC(=O)C(Cc2ccc(OC3OC(CO)C(OC4OC(COCc5ccc(OCc6ccccc6)cc5)C(O)C(O)C4O)C(O)C3O)cc2)NC1=O (stereo not drawn) [Example 231, Cyclo[glycyl-β-methylphenylalanyl-O-[4-O-[6-O-[4-(phenylmethoxy)benzyl]hexopyranosyl]-hexopyranosyl)tyrosyl-3-(2-iminoimidazolidin-4-yl)seryl-3-(3-hexopyranosyl-2-iminoimidazolidin-4-yl)serylseryl]]
1 µg/mL: MIC Coagulase Negative Staphylococcus (GC 4551) (Staphylococcus sp.)
2 µg/mL: MIC Staphylococcus aureus-SMITH (GC 4543) (Staphylococcus sp.)
1 to 4 µg/mL: MIC Staphylococcus aureus (ATCC 29213) (Staphylococcus sp.) | MIC Staphylococcus aureus (GC 4541) (Staphylococcus sp.) | MIC Staphylococcus aureus (GC 4545) (Staphylococcus sp.) | MIC Staphylococcus haemolyticus (GC 4546) (Staphylococcus sp.)
<0.06 µg/mL: MIC Streptococcus agalactiae (GC 4564) (Streptococcus sp.; [11]) | MIC Streptococcus pneumoniae (ATCC 6301) (Streptococcus sp.; [12]) | MIC Streptococcus pneumoniae (GC 1894) (Streptococcus sp.; [13]) | MIC Streptococcus pneumoniae (GC 4565) (Streptococcus sp.; [14]) | MIC Streptococcus pyogenes (GC 4563) (Streptococcus sp.; [15]) | MIC Streptococcus agalactiae (GC 4564) (Streptococcus sp.; [10]) | MIC Streptococcus pneumoniae (ATCC 6301) (Streptococcus sp.; [10]) | MIC Streptococcus pneumoniae (GC 1894) (Streptococcus sp.; [10]) | MIC Streptococcus pneumoniae (GC 4565) (Streptococcus sp.; [10]) | MIC Streptococcus pyogenes (GC 4563) (Streptococcus sp.; [10])
2 to 4 µg/mL: MIC Enterococcus avium (GC 4558) (Enterococcus sp.; Enterococcus avium (GC 4558)) | MIC Enterococcus faecalis (GC 2691) (Enterococcus sp.; [4]) | MIC Enterococcus faecalis (GC 3059) (Enterococcus sp.; [5]) | MIC Enterococcus faecalis (GC 6189) (Enterococcus sp.; [9]) | MIC Enterococcus avium (GC 4558) (Enterococcus sp.; [10]) | MIC Enterococcus faecalis (GC 2691) (Enterococcus sp.; [10]) | MIC Enterococcus faecalis (GC 3059) (Enterococcus sp.; [10]) | MIC Enterococcus faecalis (GC 6189) (Enterococcus sp.; [10]) | MIC Staphylococcus aureus (GC 1131) (Staphylococcus sp.) | MIC Staphylococcus aureus (GC 4542) (Staphylococcus sp.) | MIC Staphylococcus aureus (GC 4544) (Staphylococcus sp.)
0.5 to 1 µg/mL: MIC Coagulase Negative Staphylococcus (GC 4548) (Staphylococcus sp.; Coagulase Negative Staphylococcus (GC 4548)) | MIC Coagulase Negative Staphylococcus (GC 6257) (Staphylococcus sp.)
0.5 to 2 µg/mL: MIC Escherichia coli (GC 4560) (Escherichia coli)
4 µg/mL: MIC Enterococcus faecalis (ATCC 29212) (Enterococcus sp.; [2]) | MIC Enterococcus faecalis (GC 2242) (Enterococcus sp.; [3]) | MIC Enterococcus faecalis (GC 4552) (Enterococcus sp.; [6]) | MIC Enterococcus faecalis (GC 4553) (Enterococcus sp.; [7]) | MIC Enterococcus faecalis (GC 4554) (Enterococcus sp.; [8]) | MIC Enterococcus faecium (GC 2243) (Enterococcus sp.; Enterococcus faecium (GC 2243)) | MIC Enterococcus faecium (GC 4556) (Enterococcus sp.; Enterococcus faecium (GC 4556)) | MIC Enterococcus faecalis (ATCC 29212) (Enterococcus sp.; [10]) | MIC Enterococcus faecalis (GC 2242) (Enterococcus sp.; [10]) | MIC Enterococcus faecalis (GC 4552) (Enterococcus sp.; [10]) | MIC Enterococcus faecalis (GC 4553) (Enterococcus sp.; [10]) | MIC Enterococcus faecalis (GC 4554) (Enterococcus sp.; [10]) | MIC Enterococcus faecium (GC 2243) (Enterococcus sp.; [10]) | MIC Enterococcus faecium (GC 4556) (Enterococcus sp.; [10])
0.25 mg/kg: median effective dose (ED50), Staphylococcus aureus-SMITH (GC 4543) [1]
1 to 2 µg/mL: MIC Enterococcus faecium (GC 4557) (Enterococcus sp.; Enterococcus faecium (GC 4557)) | MIC Enterococcus faecium (GC 4557) (Enterococcus sp.; [10]) | MIC Coagulase Negative Staphylococcus (GC 4547) (Staphylococcus sp.) | MIC Staphylococcus aureus (GC 3051) (Staphylococcus sp.) | MIC Staphylococcus aureus (GC 3053) (Staphylococcus sp.)

CC(c1ccccc1)C1NC(=O)CNC(=O)C(CO)NC(=O)C(C(O)C2CNC(=N)N2C2OC(CO)C(O)C(O)C2O)NC(=O)C(C(O)C2CNC(=N)N2)NC(=O)C(Cc2ccc(OC3OC(CO)C(OC4OC(CO)C(OCc5ccc(OCc6ccccc6)cc5)C(O)C4O)C(O)C3O)cc2)NC1=O (stereo not drawn) [Example 231a, Cyclo[glycyl-β-methylphenylalanyl-O-[4-O-[4-O-[4-(phenylmethoxy)benzyl]hexopyranosyl]-hexopyranosyl]tyrosyl-3-(2-iminoimidazolidin-4-yl)seryl-3-(3-hexopyranosyl-2-iminoimidazolidin-4-yl)serylseryl]]
0.5 to 2 µg/mL: MIC Escherichia coli (GC 4560) (Escherichia coli)
2 µg/mL: MIC Enterococcus avium (GC 4558) (Enterococcus sp.; Enterococcus avium (GC 4558)) | MIC Enterococcus faecalis (ATCC 29212) (Enterococcus sp.; [2]) | MIC Enterococcus faecalis (GC 2691) (Enterococcus sp.; [4]) | MIC Enterococcus faecium (GC 2243) (Enterococcus sp.; Enterococcus faecium (GC 2243)) | MIC Enterococcus faecium (GC 4557) (Enterococcus sp.; Enterococcus faecium (GC 4557)) | MIC Enterococcus avium (GC 4558) (Enterococcus sp.; [10]) | MIC Enterococcus faecalis (ATCC 29212) (Enterococcus sp.; [10]) | MIC Enterococcus faecalis (GC 2691) (Enterococcus sp.; [10]) | MIC Enterococcus faecium (GC 2243) (Enterococcus sp.; [10]) | MIC Enterococcus faecium (GC 4557) (Enterococcus sp.; [10])
0.5 to 1 µg/mL: MIC Staphylococcus aureus (GC 4542) (Staphylococcus sp.)
4 µg/mL: MIC Enterococcus faecalis (GC 4552) (Enterococcus sp.; [6]) | MIC Enterococcus faecalis (GC 4553) (Enterococcus sp.; [7]) | MIC Enterococcus faecalis (GC 4554) (Enterococcus sp.; [8]) | MIC Enterococcus faecalis (GC 4552) (Enterococcus sp.; [10]) | MIC Enterococcus faecalis (GC 4553) (Enterococcus sp.; [10]) | MIC Enterococcus faecalis (GC 4554) (Enterococcus sp.; [10])
2 to 4 µg/mL: MIC Enterococcus faecalis (GC 2242) (Enterococcus sp.; [3]) | MIC Enterococcus faecium (GC 4556) (Enterococcus sp.; Enterococcus faecium (GC 4556)) | MIC Enterococcus faecalis (GC 2242) (Enterococcus sp.; [10]) | MIC Enterococcus faecium (GC 4556) (Enterococcus sp.; [10]) | MIC Staphylococcus aureus (GC 4544) (Staphylococcus sp.)
0.06 mg/kg: median effective dose (ED50), Staphylococcus aureus-SMITH (GC 4543) [1]
0.5 µg/mL: MIC Coagulase Negative Staphylococcus (GC 4551) (Staphylococcus sp.) | MIC Coagulase Negative Staphylococcus (GC 6257) (Staphylococcus sp.)
<0.06 µg/mL: MIC Streptococcus agalactiae (GC 4564) (Streptococcus sp.; [11]) | MIC Streptococcus pneumoniae (ATCC 6301) (Streptococcus sp.; [12]) | MIC Streptococcus pneumoniae (GC 1894) (Streptococcus sp.; [13]) | MIC Streptococcus pneumoniae (GC 4565) (Streptococcus sp.; [14]) | MIC Streptococcus pyogenes (GC 4563) (Streptococcus sp.; [15]) | MIC Streptococcus agalactiae (GC 4564) (Streptococcus sp.; [10]) | MIC Streptococcus pneumoniae (ATCC 6301) (Streptococcus sp.; [10]) | MIC Streptococcus pneumoniae (GC 1894) (Streptococcus sp.; [10]) | MIC Streptococcus pneumoniae (GC 4565) (Streptococcus sp.; [10]) | MIC Streptococcus pyogenes (GC 4563) (Streptococcus sp.; [10])
1 to 2 µg/mL: MIC Enterococcus faecalis (GC 3059) (Enterococcus sp.; [5]) | MIC Enterococcus faecalis (GC 6189) (Enterococcus sp.; [9]) | MIC Enterococcus faecalis (GC 3059) (Enterococcus sp.; [10]) | MIC Enterococcus faecalis (GC 6189) (Enterococcus sp.; [10]) | MIC Staphylococcus aureus (ATCC 29213) (Staphylococcus sp.) | MIC Staphylococcus aureus (GC 1131) (Staphylococcus sp.) | MIC Staphylococcus aureus (GC 3053) (Staphylococcus sp.) | MIC Staphylococcus aureus (GC 4541) (Staphylococcus sp.) | MIC Staphylococcus aureus (GC 4545) (Staphylococcus sp.)
32 µg/mL: MIC Escherichia coli (GC 4559) (Escherichia coli; Escherichia coli (GC 4559))
1 µg/mL: MIC Coagulase Negative Staphylococcus (GC 4547) (Staphylococcus sp.) | MIC Staphylococcus aureus (GC 3051) (Staphylococcus sp.) | MIC Staphylococcus aureus-SMITH (GC 4543) (Staphylococcus sp.) | MIC Staphylococcus haemolyticus (GC 4546) (Staphylococcus sp.)

CCCOc1ccc(COCC2OC(OC3C(CO)OC(Oc4ccc(CC5NC(=O)C(C(C)c6ccccc6)NC(=O)CNC(=O)C(CO)NC(=O)C(C(O)C6CNC(=N)N6C6OC(CO)C(O)C(O)C6O)NC(=O)C(C(O)C6CNC(=N)N6)NC5=O)cc4)C(O)C3O)C(O)C(O)C2O)cc1 (stereo not drawn) [Example 235, Cyclo[glycyl-β-methylphenylalanyl-O-[4-O-[6-O-(4-propoxybenzyl)hexopyranosyl]hexopyranosyl]tyrosyl-3-(2-iminoimidazolidin-4-yl)seryl-3-(3-hexopyranosyl-2-iminoimidazolidin-4-yl)serylseryl]]
1 to 2 µg/mL: MIC Staphylococcus aureus (GC 1131) (Staphylococcus sp.) | MIC Staphylococcus aureus (GC 3053) (Staphylococcus sp.) | MIC Staphylococcus aureus (GC 4544) (Staphylococcus sp.) | MIC Staphylococcus aureus (GC 4545) (Staphylococcus sp.)
4 µg/mL: MIC Enterococcus avium (GC 4558) (Enterococcus sp.; Enterococcus avium (GC 4558)) | MIC Enterococcus faecalis (ATCC 29212) (Enterococcus sp.; [2]) | MIC Enterococcus faecalis (GC 2242) (Enterococcus sp.; [3]) | MIC Enterococcus faecalis (GC 2691) (Enterococcus sp.; [4]) | MIC Enterococcus faecalis (GC 4552) (Enterococcus sp.; [6]) | MIC Enterococcus faecalis (GC 4553) (Enterococcus sp.; [7]) | MIC Enterococcus faecalis (GC 6189) (Enterococcus sp.; [9]) | MIC Enterococcus faecium (GC 2243) (Enterococcus sp.; Enterococcus faecium (GC 2243)) | MIC Enterococcus faecium (GC 4556) (Enterococcus sp.; Enterococcus faecium (GC 4556)) | MIC Enterococcus faecalis (GC 2242) (Enterococcus sp.; [10]) | MIC Enterococcus faecalis (GC 2691) (Enterococcus sp.; [10])
0.25 µg/mL: MIC Streptococcus pyogenes (GC 4563) (Streptococcus sp.; [15]) | MIC Streptococcus pyogenes (GC 4563) (Streptococcus sp.; [10])
4 to 8 µg/mL: MIC Enterococcus faecalis (GC 3059) (Enterococcus sp.; [5]) | MIC Enterococcus faecalis (GC 4554) (Enterococcus sp.; [8]) | MIC Enterococcus faecalis (GC 3059) (Enterococcus sp.; [10])
0.59 mg/kg: median effective dose (ED50), Staphylococcus aureus-SMITH (GC 4543) [1]
0.5 to 2 µg/mL: MIC Enterococcus faecium (GC 4557) (Enterococcus sp.; Enterococcus faecium (GC 4557)) | MIC Staphylococcus aureus (GC 3051) (Staphylococcus sp.) | MIC Staphylococcus aureus (GC 4542) (Staphylococcus sp.)
0.5 to 1 µg/mL: MIC Escherichia coli (GC 4560) (Escherichia coli) | MIC Coagulase Negative Staphylococcus (GC 4547) (Staphylococcus sp.) | MIC Coagulase Negative Staphylococcus (GC 4551) (Staphylococcus sp.) | MIC Staphylococcus aureus (ATCC 29213) (Staphylococcus sp.) | MIC Staphylococcus aureus (GC 4541) (Staphylococcus sp.) | MIC Staphylococcus aureus-SMITH (GC 4543) (Staphylococcus sp.)
0.12 µg/mL: MIC Streptococcus pneumoniae (ATCC 6301) (Streptococcus sp.; [12]) | MIC Streptococcus pneumoniae (ATCC 6301) (Streptococcus sp.; [10])
<0.06 µg/mL: MIC Streptococcus pneumoniae (GC 1894) (Streptococcus sp.; [13]) | MIC Streptococcus pneumoniae (GC 1894) (Streptococcus sp.; [10])

Source: patent publication US8247211B2, “Glycopeptide antibiotics” (American Cyanamid Company, priority 2001, dated 2012)
